Assay results as given in patent publication US20240024216A1, “METHODS AND MATERIALS FOR TREATING HAIR LOSS” (The Penn State Research Foundation, priority 2021, published 2024).

Key:
C57BL/6 mice = assay: Hair regrowth after dorsal hair removal in mice; type: in vivo
Description: Wild-type C57BL/6 mice (7-8 weeks old) were placed in the lateral decubitus position on a sterile paper sheet after anesthesia using intraperitoneal injection of ketamine (60 mg/kg) and xylazine (4 mg/kg). Sterile surgical instruments (autoclaved) were used during dorsal hair removal. The skin was prepared for hair removal on the dorso-lateral skin (from neck to tail) by shaving with a mechanical shaver, and then hair removal cream (Nair) was placed on the skin for 30-60 seconds. Hair was removed completely by gently wiping the skin with cotton balls soaked in warm water and disinfected using 70% ethanol wipes and betadine 3 times.
After dorsal hair removal, mice were placed in a clean cage on the heating pad for 30 minutes or until recovery. […]
At day 14, the backs of the mice were photographed with a digital camera, to evaluate the darkening of skin color. […] In morphological observation (FIG. 1A and FIG. 1), hair growth area was determined as a percentage after photographing hair growth state on the backs of mice and observation was conducted after hair removal at day 0 and after 4-AP treatment (daily systemic) at day 14. […] The level of hair regrowth/pigmentation was quantified by the intensity of the darkness of the back skin in the same area. […]

[1] = test system: human foreskin primary keratinocytes; assay: Keratinocyte scratch assay with 4-AP, NGF and NGF-antibody; type: cell-based; details: at 12 hours
Description: Keratinocytes (7×10^4 cells/well) with KC medium were seeded on collagen-I pre-coated 96-well ImageLock microplate for 6 hours. For the drug treatment cells were pretreated with 4-AP prior to coating for 16-18 hours. Next, the wound scratch was created using IncuCyte automated system. After scratches the cells washed with PBS and the respective cells medium was added with individual 1 mM of 4-AP and 200 ng/ml of NGF (MyBioSource, Inc., Catlog No. MBS7114974) in keratinocytes medium and combination of 1 mM of 4-AP & 200 ng/mL NGF with or without 10 μg/ml of NGF-antibody (ThermoFisher Scientific, Catlog No. MA5-32067). The plate was incubated in Incucyte automated imaging system, wound healing and cells migration imaged for every hour until 24 hour and analyzed for percent of closure as described above procedure.

[2] = test system: human foreskin dermal primary Schwann cells; assay: Scratch wound healing migration assay, primary dermal Schwann cells; type: cell-based
Description: Dermal Schwann cells isolation culture conditions and characterization—The separated dermis was minced into small pieces and placed in a petri dish containing collagenase in DMEM basal medium at 37° C. for 2.5 hours. The dermis was completely dissociated and the medium was cloudy. The dissociated medium was collected in tube and centrifuged at 1500 rpm for 5 minutes. The pellet was resuspended in complete DMEM medium, added on poly-L-lysine coated dish and the dish was incubated at 37° C. in 5% CO2 incubator for overnight. Next day, adhered cells were treated with 10 μM cytosine arabinoside containing DMEM complete medium and incubated at 37° C. in 5% CO2 incubator for 24 hours. After, the cells were cultured in Schwann cells culture medium (ScienCell Research, Catlog No. 1701) until the cells reached about 95% confluence.
Keratinocytes/Schwann cells/fibroblasts (7×10^4 cells/well keratinocytes and 3.5×10^4 cells/well of SCs and FBs) with their respective medium were seeded on pre-coated either with collagen-I/PLL/no 96-well ImageLock microplate for 6 hours (Incucyte-sartorius plate, Cat log 4379). For the drug treatment cells were pretreated with 4-AP prior to coating for 16-18 hours. […] The plate was incubated in Incucyte automated imaging system, wound healing and cells migration was monitored by time-lapse photography capturing every hour from 0 to 42 hours. […]

[3] = test system: keratinocytes co-cultured with SCs (10:1); assay: Co-culture scratch assay, keratinocytes with Schwann cells; type: cell-based, human
Description: To determine the influence of Schwann cells and fibroblast on keratinocytes migration and proliferation wound healing scratch assay was conducted. The co-culture experiment performed in Keratinocytes to either Schwann cells or fibroblasts in a ratio of 10:1 with same proposition of their respective medium were seeded on 96-well ImageLock microplate for 6 hours and the wells were pre-coated with collagen-I plate. For the drug treatment cells were pretreated with 4-AP prior to coating for 16-18 hours. Next, the wound scratch was created and treated cells with and without 4-AP in medium. Imaged for every hour until 24 hour and analyzed for percent of closure as described above procedure.

Nc1ccncc1 [4-AP, 4-aminopyridine]
number of hair follicles (H&E transverse sections) (C57BL/6 mice; day 14, compared with saline treated mice): increased
hair regrowth (C57BL/6 mice; day 14 after hair removal, systemic ip 10-50 μg/daily): around 50%
scratch closure ([1]; 56% in control cultures, 1 mM 4-AP, 200 ng/ml NGF): 75%
scratch closure with NGF-neutralizing antibody ([1]; plus 10 μg/ml NGF-antibody): 67%
time to 80% scratch closure ([2]; 1 mM 4-AP, 23 hours without treatment): 11 h
SOX10 and NGF expression in SCs ([2]; compared to controls): increased
percentage of wound closure ([3]; at 15 hours, 80% in non-treated): 98%
time to scratch closure ([3]; with 4-AP, 20 hours without treatment): ≤ 15 h
